Reference: ChEMBL document CHEMBL5303573, “Mapping human microbiome drug metabolism by gut bacteria and their genes” (Nature, 2019)

Key:
[1] = The drug is tested on Eggerthella lenta strain: ATCC25559 for biotransformation. The drug concentrations were measured before and after a 12-h incubation by liquid-chromatography-coupled mass spectrometry (LC–MS); conditions: 2 µM
[2] = The drug is tested on Bacteroides fragilis strain: HMW615 for biotransformation. The drug concentrations were measured before and after a 12-h incubation by liquid-chromatography-coupled mass spectrometry (LC–MS); conditions: 2 µM
[3] = The drug is tested on Bacteroides ovatus strain: ATCC8483 for biotransformation. The drug concentrations were measured before and after a 12-h incubation by liquid-chromatography-coupled mass spectrometry (LC–MS); conditions: 2 µM
[4] = The drug is tested on Anaerococcus hydrogenalis strain: DSM7454 for biotransformation. The drug concentrations were measured before and after a 12-h incubation by liquid-chromatography-coupled mass spectrometry (LC–MS); conditions: 2 µM
[5] = The drug is tested on Clostridium asparagiforme strain: DSM15981 for biotransformation. The drug concentrations were measured before and after a 12-h incubation by liquid-chromatography-coupled mass spectrometry (LC–MS); format: ADME; set-up: dose 2 uM, timepoint 0 vs 12 hours; conditions: enterocloster asparagiformis, 2 µM
Diguanylate cyclase = target: T1, Diguanylate cyclase (Collinsella aerofaciens, UniProt A4EB91); test: (§1) The drug is tested on Collinsella aerofaciens strain: ATCC25986 for biotransformation. The drug concentrations were measured before and after a 12-h incubation by liquid-chromatography-coupled mass spectrometry (LC–MS); format: ADME; set-up: dose 2 uM; conditions: 2 µM
T1 sequence (A4EB91 whole entry): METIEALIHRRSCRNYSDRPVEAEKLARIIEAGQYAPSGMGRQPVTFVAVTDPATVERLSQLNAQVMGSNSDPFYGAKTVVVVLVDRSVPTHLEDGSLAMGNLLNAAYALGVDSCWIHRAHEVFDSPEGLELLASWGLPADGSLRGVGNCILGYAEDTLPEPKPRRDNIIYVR

GDSL-like protein = target: T2, GDSL-like protein (Collinsella aerofaciens, UniProt A4E8S4); test: as §1; format: ADME; set-up: dose 2 uM; conditions: 2 µM
T2 sequence (A4E8S4 whole entry): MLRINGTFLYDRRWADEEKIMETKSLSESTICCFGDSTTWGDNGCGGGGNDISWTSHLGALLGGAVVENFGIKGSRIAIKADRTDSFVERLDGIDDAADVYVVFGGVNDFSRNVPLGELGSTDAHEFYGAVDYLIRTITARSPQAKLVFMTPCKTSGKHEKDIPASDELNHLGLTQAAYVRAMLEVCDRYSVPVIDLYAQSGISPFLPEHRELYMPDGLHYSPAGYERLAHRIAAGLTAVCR

[6] = target: T3, Acyltransferase 3 domain-containing protein (Phocaeicola dorei, UniProt B6W2J3); test: (§2) The drug is tested on Bacteroides dorei strain: DSM17855 for biotransformation. The drug concentrations were measured before and after a 12-h incubation by liquid-chromatography-coupled mass spectrometry (LC–MS); format: ADME; set-up: dose 2 uM; conditions: 2 µM
T3 sequence (B6W2J3 whole entry): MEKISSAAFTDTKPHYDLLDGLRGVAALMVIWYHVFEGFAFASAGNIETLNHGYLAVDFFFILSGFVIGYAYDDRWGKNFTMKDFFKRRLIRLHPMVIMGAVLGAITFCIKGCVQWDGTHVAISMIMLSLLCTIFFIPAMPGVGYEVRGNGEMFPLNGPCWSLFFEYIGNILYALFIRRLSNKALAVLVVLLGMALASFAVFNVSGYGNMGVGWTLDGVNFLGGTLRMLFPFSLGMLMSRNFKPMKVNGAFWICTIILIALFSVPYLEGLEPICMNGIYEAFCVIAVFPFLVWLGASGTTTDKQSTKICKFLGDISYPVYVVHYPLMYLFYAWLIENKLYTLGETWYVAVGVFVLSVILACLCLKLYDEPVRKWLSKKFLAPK

Esterase = target: T4, Esterase (Phocaeicola dorei, UniProt B6W2J6); test: as §2; format: ADME; set-up: dose 2 uM; conditions: 2 µM
T4 sequence (B6W2J6 whole entry): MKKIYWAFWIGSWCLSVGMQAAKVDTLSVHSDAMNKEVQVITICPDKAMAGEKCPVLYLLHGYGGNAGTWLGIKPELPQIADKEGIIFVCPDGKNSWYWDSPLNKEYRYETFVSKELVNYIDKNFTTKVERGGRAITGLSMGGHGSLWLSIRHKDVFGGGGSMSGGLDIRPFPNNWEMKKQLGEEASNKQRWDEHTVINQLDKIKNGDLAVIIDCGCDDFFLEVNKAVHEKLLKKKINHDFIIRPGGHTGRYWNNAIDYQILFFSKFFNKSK

[7] = target: T5, Nitroreductase domain-containing protein (Phocaeicola dorei, UniProt B6VU18); test: as §2; format: ADME; set-up: dose 2 uM; conditions: 2 µM
T5 sequence (B6VU18 whole entry): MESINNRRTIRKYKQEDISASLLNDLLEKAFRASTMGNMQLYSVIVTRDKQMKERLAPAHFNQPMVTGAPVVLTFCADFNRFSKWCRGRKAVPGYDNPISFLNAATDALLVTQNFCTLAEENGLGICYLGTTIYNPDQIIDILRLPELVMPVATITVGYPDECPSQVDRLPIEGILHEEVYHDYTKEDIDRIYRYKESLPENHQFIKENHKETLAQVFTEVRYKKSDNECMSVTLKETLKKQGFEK

[8] = target: T6, Nitroreductase domain-containing protein (Phocaeicola dorei, UniProt B6W3P3); test: as §2; format: ADME; set-up: dose 2 uM; conditions: 2 µM
T6 sequence (B6W3P3 whole entry): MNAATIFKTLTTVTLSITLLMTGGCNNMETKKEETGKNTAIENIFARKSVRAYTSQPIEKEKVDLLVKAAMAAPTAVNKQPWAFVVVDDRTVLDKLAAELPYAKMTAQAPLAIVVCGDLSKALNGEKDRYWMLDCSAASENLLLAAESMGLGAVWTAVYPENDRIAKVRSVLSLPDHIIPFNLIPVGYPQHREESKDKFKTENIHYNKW

[9] = target: T7, Steroid 5-alpha reductase C-terminal domain-containing protein (Phocaeicola dorei, UniProt B6W0N3); test: as §2; format: ADME; set-up: dose 2 uM; conditions: 2 µM
T7 sequence (B6W0N3 whole entry): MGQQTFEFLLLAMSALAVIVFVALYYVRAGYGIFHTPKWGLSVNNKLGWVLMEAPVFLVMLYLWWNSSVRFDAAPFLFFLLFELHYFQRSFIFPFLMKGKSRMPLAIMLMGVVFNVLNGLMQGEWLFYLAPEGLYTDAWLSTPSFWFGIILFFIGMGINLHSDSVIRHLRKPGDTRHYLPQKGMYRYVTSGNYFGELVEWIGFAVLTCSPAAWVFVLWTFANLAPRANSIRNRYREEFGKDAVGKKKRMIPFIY

[10] = victivallis vadensis, 12 h, 2 µM
Description: The drug is tested on Victivallis vadensis strain: ATCC BAA-548 for biotransformation. The drug concentrations were measured before and after a 12-h incubation by liquid-chromatography-coupled mass spectrometry (LC–MS)

N#Cc1ccc2c(c1)N(CCCN1CCC(O)CC1)c1ccccc1S2 [PERICIAZINE]
Bacterial Biotransformation [1]: Compound NOT metabolized
Bacterial Biotransformation [2]: Compound NOT metabolized
Bacterial Biotransformation [3]: Compound NOT metabolized
Bacterial Biotransformation [4]: Compound NOT metabolized
Bacterial Biotransformation [5]: Compound NOT metabolized
Bacterial Biotransformation (Diguanylate cyclase): Compound NOT metabolized
Bacterial Biotransformation (GDSL-like protein): Compound NOT metabolized
Bacterial Biotransformation [6]: Compound metabolized
Bacterial Biotransformation (Esterase): Compound NOT metabolized
Bacterial Biotransformation [7]: Compound NOT metabolized
Bacterial Biotransformation [8]: Compound NOT metabolized
Bacterial Biotransformation [9]: Compound NOT metabolized
Bacterial Biotransformation [10]: Compound NOT metabolized
